Measurements published in patent US20170275270A1, “BENZYL SUBSTITUTED INDAZOLES” (Bayer Pharma Aktiengesellschaft, priority 2014, published 2017).
Like-named read-outs stand apart in the source and are kept apart here.

Tests used:
[1] = system: HeLa human cervical tumor cells; assay: Proliferation assay (HeLa+Paclitaxel); settings: read-out: Biological Assay 3: HeLa + Paclitaxel IC50, 3 nM paclitaxel, crystal violet;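 further: compounds at 0.001-10 µM added 4 h after paclitaxel, 92 h exposure, absorbance normalized to zero-point plate (0%) and untreated cells (100%), IC50 from 4-parameter fit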
HeLa = assay: Proliferation assay (HeLa cell line); settings: Homo sapiens, 96 h, read-out: Biological Assay 2: Proliferation assay (HeLa cell line) median IC50;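 further: crystal violet staining of cell number, scaled between a plate stained before dosing (0%) and cells left untreated (100%), compounds tested at 0.001-10 µM, IC50 via 4-parameter fit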
Bub1 = Bub1 (Homo sapiens, UniProt O43683); assay: Formation-Assay: phosphorylation status of histone 2A by inhibition of kinase activity of Bub1; type: cell-based; settings: Biological Assay 4.1: H2A Formation IC50, co-treatment with Nocodazole 1 μg/ml, 16 h
Bub1, sequence (O43683 whole entry): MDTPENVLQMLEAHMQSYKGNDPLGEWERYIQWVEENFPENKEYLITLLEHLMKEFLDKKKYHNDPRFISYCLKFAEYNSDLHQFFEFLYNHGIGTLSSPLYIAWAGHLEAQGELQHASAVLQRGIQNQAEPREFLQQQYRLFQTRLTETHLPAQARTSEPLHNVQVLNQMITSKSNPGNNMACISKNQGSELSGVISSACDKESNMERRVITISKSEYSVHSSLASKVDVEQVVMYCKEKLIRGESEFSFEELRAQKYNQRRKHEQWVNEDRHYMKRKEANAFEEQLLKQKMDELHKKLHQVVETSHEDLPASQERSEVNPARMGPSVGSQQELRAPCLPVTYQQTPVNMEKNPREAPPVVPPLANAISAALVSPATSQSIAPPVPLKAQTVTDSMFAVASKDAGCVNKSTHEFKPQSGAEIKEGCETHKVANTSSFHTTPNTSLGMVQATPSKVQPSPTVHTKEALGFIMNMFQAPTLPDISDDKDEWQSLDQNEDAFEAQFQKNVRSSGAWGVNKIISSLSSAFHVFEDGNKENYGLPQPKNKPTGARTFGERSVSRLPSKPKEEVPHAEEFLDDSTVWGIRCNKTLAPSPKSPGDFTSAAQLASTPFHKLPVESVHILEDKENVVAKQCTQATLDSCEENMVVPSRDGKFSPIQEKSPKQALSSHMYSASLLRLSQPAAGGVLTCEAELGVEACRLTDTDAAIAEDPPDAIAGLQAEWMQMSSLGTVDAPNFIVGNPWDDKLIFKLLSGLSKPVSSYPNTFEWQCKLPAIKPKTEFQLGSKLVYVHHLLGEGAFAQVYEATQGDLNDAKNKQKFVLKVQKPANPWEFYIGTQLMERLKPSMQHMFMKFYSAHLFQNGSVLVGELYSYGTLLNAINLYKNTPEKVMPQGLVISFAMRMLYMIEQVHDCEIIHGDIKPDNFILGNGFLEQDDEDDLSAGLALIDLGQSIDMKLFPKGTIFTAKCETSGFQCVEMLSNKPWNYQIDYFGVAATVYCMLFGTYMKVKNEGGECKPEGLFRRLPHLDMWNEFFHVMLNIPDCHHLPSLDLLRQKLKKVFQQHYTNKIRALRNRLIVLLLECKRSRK
Method in brief: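 Cells co-treated 16 h with Nocodazole (1 μg/ml) and compound (3 nM–10 μM), then fixed and immunostained for phospho-H2A, read by infrared imaging (800 nm) normalised to cell stain (700 nm). Nocodazole-only set as 100%, untreated cells as 0%.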

[2] = target: T1, catalytic domain of human Bub1 (amino acids 704-1085) (Homo sapiens, UniProt O43683); assay: Bub1 kinase assay (TR-FRET); type: biochemical
T1 construct: catalytic domain of human Bub1 (amino acids 704-1085); His6 (N); made in house; host or cells: Hi5 insect cells
T1 sequence (O43683 704-1085): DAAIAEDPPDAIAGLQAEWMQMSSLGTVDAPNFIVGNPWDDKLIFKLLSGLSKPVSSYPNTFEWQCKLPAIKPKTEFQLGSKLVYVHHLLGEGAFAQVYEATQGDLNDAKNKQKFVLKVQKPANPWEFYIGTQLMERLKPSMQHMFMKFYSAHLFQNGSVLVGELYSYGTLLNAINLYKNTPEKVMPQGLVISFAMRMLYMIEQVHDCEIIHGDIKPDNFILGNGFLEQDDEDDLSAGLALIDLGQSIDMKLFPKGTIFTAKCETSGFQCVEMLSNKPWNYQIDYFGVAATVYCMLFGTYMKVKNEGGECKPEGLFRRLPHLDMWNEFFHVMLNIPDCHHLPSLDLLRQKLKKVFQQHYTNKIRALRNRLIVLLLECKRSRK
Method in brief: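 Compounds from 2 mM DMSO stocks, serially diluted 1:3.4, incubated with enzyme at 22° C for 60 min. Stopped with EDTA, then 1 h with streptavidin-XL665, anti-phosphoserine antibody and Eu-labelled anti-mouse IgG. Phosphorylated biotin-peptide read by TR-FRET; IC50 by 4-parameter logistic fit.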

[3] = Biological Assay 1: Bub1 kinase assay median IC50, 10 μM ATP
[4] = 10 μM ATP, read-out: Biological Assay 1: Bub1 kinase assay median IC50

| SMILES | IC50 [1] [nM] | IC50 (HeLa) [nM] | IC50 (Bub1) [nM] | IC50 [2, 3] [nM] | IC50 [2, 4] [nM] |
| --- | --- | --- | --- | --- | --- |
| CCOc1cc(F)c(Cn2nc(-c3ncc(OCCS(C)(=O)=O)c(Nc4ccncc4)n3)c3ccccc32)c(F)c1 [Example 3-3-1, 2-[1-(4-ethoxy-2,6-difluorobenzyl)-1H-indazol-3-yl]-5-[2-(methylsulfonyl)ethoxy]-N-(pyridin-4-yl)pyrimidin-4-amine, reference compound] | 1100 | 4100 | 500 | 5.9 | – |
| Cc1nccc(Nc2nc(-c3nn(Cc4c(F)cc(O)cc4F)c4ccccc34)nc3c2CCC3)n1 [Example 2-6-12, 3,5-difluoro-4-[(3-{4-[(2-methylpyrimidin-4-yl)amino]-6,7-dihydro-5H-cyclopenta[d]pyrimidin-2-yl}-1H-indazol-1-yl)methyl]phenol] | 2100 | > 10000 | 2300 | 44 | – |
| CCOc1cc(F)c(Cn2nc(-c3nc4c(c(Nc5ccncc5)n3)CCC4)c3ccccc32)c(F)c1 [Example 2-12-2, 2-[1-(4-ethoxy-2,6-difluorobenzyl)-1H-indazol-3-yl]-N-(pyridin-4-yl)-6,7-dihydro-5H-cyclopenta[d]pyrimidin-4-amine] | 390 | 2100 | 180 | – | 12 |
| CCOc1cc(F)c(Cn2nc(-c3nc4c(c(Nc5cnnc(Cl)c5)n3)CCC4)c3ccccc32)c(F)c1 [Example 2-12-53, N-(6-chloropyridazin-4-yl)-2-[1-(4-ethoxy-2,6-difluorobenzyl)-1H-indazol-3-yl]-6,7-dihydro-5H-cyclopenta[d]pyrimidin-4-amine] | 510 | > 10000 | 140 | – | 660 |
| COc1cnccc1Nc1nc(-c2nn(Cc3c(F)cc(OCCO)cc3F)c3ccccc23)nc2c1CCC2 [Example 2-4-5, 2-{3,5-difluoro-4-[(3-{4-[(3-methoxypyridin-4-yl)amino]-6,7-dihydro-5H-cyclopenta[d]pyrimidin-2-yl}-1H-indazol-1-yl)methyl]phenoxy}ethanol] | 180 | 2600 | 3900 | – | 28 |
| CCOc1cc(F)c(Cn2nc(-c3nc(C)c(Cl)c(Nc4ccncc4)n3)c3ccccc32)c(F)c1 [Example 2-12-23, 5-chloro-2-[1-(4-ethoxy-2,6-difluorobenzyl)-1H-indazol-3-yl]-6-methyl-N-(pyridin-4-yl)pyrimidin-4-amine] | 380 | > 10000 | 10 | – | 23 |
| Cc1cc(Nc2nc(-c3nn(Cc4c(F)cc(OCCO)cc4F)c4ccccc34)nc3c2CCC3)ccn1 [Example 2-4-12, 2-{3,5-difluoro-4-[(3-{4-[(2-methylpyridin-4-yl)amino]-6,7-dihydro-5H-cyclopenta[d]pyrimidin-2-yl}-1H-indazol-1-yl)methyl]phenoxy}ethanol] | 3300 | 1100 | 2300 | – | 48 |
| OCCOc1cc(F)c(Cn2nc(-c3ncc(C4CCN(CC(F)(F)F)CC4)c(Nc4ccncc4Cl)n3)c3ccccc32)c(F)c1 [Example 2-6-14, 2-{4-[(3-{4-[(3-chloropyridin-4-yl)amino]-5-[1-(2,2,2-trifluoroethyl)piperidin-4-yl]pyrimidin-2-yl}-1H-indazol-1-yl)methyl]-3,5-difluorophenoxy} ethanol] | 340 | 2400 | 7.1 | 36 | – |
| CCOc1cc(F)c(Cn2nc(-c3nc(COC)cc(Nc4ccnc(NC(C)=O)c4)n3)c3ccccc32)c(F)c1 [Example 2-12-20, N-[4-({2-[1-(4-ethoxy-2,6-difluorobenzyl)-1H-indazol-3-yl]-6-(methoxymethyl)pyr-imidin-4-yl}amino)pyridin-2-yl]acetamide] | 330 | 2800 | 2.9 | 5.3 | – |
| COCc1cc(Nc2ccnc(C)c2)nc(-c2nn(Cc3c(F)cc(OCCO)cc3F)c3ccccc23)n1 [Example 2-12-51, 2-{3,5-difluoro-4-[(3-{4-(methoxymethyl)-6-[(2-methylpyridin-4-yl)amino]pyrimidin-2-yl}-1H-indazol-1-yl)methyl]phenoxy}eth-anol] | 340 | 410 | 570 | 45 | – |

Compounds with a lower IC50 [1], results first:

| IC50 [1] [nM] | IC50 (HeLa) [nM] | IC50 (Bub1) [nM] | IC50 [2, 3] [nM] | IC50 [2, 4] [nM] | SMILES |
| --- | --- | --- | --- | --- | --- |
| 150 | 3600 | 1400 | 5 | – | CCOc1cc(F)c(Cn2nc(-c3ncc(CC[S@@+](C)[O-])c(Nc4ccncc4)n3)c3ccccc32)c(F)c1 [Example 2-1-1, 2-[1-(4-ethoxy-2,6-difluorobenzyl)-1H-indazol-3-yl]-5-{2-[(R)-methylsulfinyl]ethyl}-N-(pyridin-4-yl)pyrimidin-4-amine] |
| 120 | > 10000 | 2.6 | 48 | – | CCOc1cc(F)c(Cn2nc(-c3ncc(CCNCC(F)(F)F)c(Nc4ccncc4Cl)n3)c3ccccc32)c(F)c1 [Example 2-20-14, N-(3-chloropyridin-4-yl)-2-[1-(4-ethoxy-2,6-difluorobenzyl)-1H-indazol-3-yl]-5-{2-[(2,2,2-trifluoroethyl)amino]ethyl}pyrimidin-4-amine] |
| 120 | > 10000 | 1900 | 88 | – | Cc1cc(Nc2nc(-c3nn(Cc4c(F)cc(OCCO)cc4F)c4ccccc34)nc3c2CCC3)ncn1 [Example 2-4-11, 2-{3,5-difluoro-4-[(3-{4-[(6-methylpyrimidin-4-yl)amino]-6,7-dihydro-5H-cyclopenta[d]pyrimidin-2-yl}-1H-indazol-1-yl)methyl]phenoxy}ethanol] |
| 68 | 6100 | 2100 | – | 5.2 | CCOc1cc(F)c(Cn2nc(-c3nc(CN4CCOCC4)cc(Nc4ccncn4)n3)c3ccccc32)c(F)c1 [Example 2-12-47, 2-[1-(4-ethoxy-2,6-difluorobenzyl)-1H-indazol-3-yl]-6-(morpholin-4-ylmethyl)-N-(pyrimidin-4-yl)pyrimidin-4-amine] |
| 130 | 1200 | 45 | – | 68 | CCOc1cc(F)c(Cn2nc(-c3nc4c(c(Nc5ccnc(C)c5)n3)CSC4)c3ccccc32)c(F)c1 [Example 2-19-4, 2-[1-(4-ethoxy-2,6-difluorobenzyl)-1H-indazol-3-yl]-N-(2-methylpyridin-4-yl)-5,7-dihydrothieno[3,4-d]pyrimidin-4-amine] |
| 130 | 3200 | 81 | 260 | – | CCOc1cc(F)c(Cn2nc(-c3ncc(C4CCN(CC(F)(F)F)CC4)c(Nc4cc(C)ncc4C)n3)c3ccccc32)c(F)c1 [Example 2-20-6, N-(2,5-dimethylpyridin-4-yl)-2-[1-(4-ethoxy-2,6-difluorobenzyl)-1H-indazol-3-yl]-5-[1-(2,2,2-trifluoroethyl)piperidin-4-yl]pyrimidin-4-amine] |
| 110 | > 10000 | 3.3 | 22 | – | CCOc1cc(F)c(Cn2nc(-c3nc4c(c(Nc5ccnc(NC(C)=O)c5)n3)CC(C)(C)C4)c3ccccc32)c(F)c1 [Example 2-12-65, N-[4-({2-[1-(4-ethoxy-2,6-difluorobenzyl)-1H-indazol-3-yl]-6,6-dimethyl-6,7-dihydro-5H-cyclopenta[d]pyrimidin-4-yl}amino)pyridin-2-yl]acetamide] |
